Laboratory results reported in PMC8776995 (Frontiers in Chemistry, 2022).
Values joined by “and” are separate entries in the source; they are usually repeats but may differ in a detail not shown here. Equal values may be shown once. Read-outs that look alike come from different tables or passages of the source.

Legend:
[1] = molecular target: wild-type EGFR (Homo sapiens, UniProt P00533); experiment: EGFR kinase assay (ELISA); settings: for IC50: IC50 (μM) EGFR, ELISA, 3 μmol/L ATP; for A450: raw ELISA absorbance
wild-type EGFR, sequence (P00533 25-1210): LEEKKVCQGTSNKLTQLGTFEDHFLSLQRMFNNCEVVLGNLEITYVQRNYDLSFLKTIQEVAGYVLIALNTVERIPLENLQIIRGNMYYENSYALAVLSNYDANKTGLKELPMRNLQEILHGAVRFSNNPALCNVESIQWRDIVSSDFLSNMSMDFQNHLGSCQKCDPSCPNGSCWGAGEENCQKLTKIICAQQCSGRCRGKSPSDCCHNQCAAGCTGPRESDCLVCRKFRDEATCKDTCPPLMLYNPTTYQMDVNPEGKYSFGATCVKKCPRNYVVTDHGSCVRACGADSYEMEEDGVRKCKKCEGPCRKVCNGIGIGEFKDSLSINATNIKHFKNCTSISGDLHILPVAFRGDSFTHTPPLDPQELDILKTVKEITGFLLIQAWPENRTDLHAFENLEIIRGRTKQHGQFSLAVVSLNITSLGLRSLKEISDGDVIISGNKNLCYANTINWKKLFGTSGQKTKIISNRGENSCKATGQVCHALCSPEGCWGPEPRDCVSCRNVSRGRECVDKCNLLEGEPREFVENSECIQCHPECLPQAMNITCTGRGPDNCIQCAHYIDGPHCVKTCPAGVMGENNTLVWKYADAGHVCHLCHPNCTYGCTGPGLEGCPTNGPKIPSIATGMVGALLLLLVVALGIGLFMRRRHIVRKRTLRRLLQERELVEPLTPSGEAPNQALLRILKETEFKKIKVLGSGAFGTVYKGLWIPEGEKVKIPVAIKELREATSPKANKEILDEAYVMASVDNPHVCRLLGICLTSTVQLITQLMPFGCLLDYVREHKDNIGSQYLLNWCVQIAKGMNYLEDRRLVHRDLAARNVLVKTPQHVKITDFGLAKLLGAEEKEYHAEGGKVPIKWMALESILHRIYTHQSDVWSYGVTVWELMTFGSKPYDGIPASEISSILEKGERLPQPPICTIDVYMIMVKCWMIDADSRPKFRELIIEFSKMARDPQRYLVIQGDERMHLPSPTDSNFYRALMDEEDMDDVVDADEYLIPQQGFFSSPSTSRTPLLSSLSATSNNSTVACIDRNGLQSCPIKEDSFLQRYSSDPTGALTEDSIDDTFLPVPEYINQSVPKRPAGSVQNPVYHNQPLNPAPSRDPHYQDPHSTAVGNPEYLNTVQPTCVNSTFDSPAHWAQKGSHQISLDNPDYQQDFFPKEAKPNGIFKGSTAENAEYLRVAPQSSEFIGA

[2] = system: H1975 cells; experiment: CCK-8 antiproliferation assay, H1975; settings: for Inhibitory efficacy: H1975 cells; for IC50: NCI-H1975, 48 h, read-out: IC50 (μM) H1975, CCK-8, 48 h, average ± SD of three independent experiments
[3] = system: PC-9 cells; experiment: CCK-8 antiproliferation assay, PC-9; settings: for IC50: PC-9, 48 h, read-out: IC50 (μM) PC-9; for Inhibitory efficacy: single repeats (Repeat 1-3), given as fraction
[4] = system: A549 cells; experiment: CCK-8 antiproliferation assay, A549; settings: for Inhibitory efficacy: A549 cells; for IC50: A549, 48 h, read-out: IC50 (μM) A549, CCK-8, 48 h, average ± SD of three independent experiments
[5] = system: H460 cells; experiment: CCK-8 antiproliferation assay, H460; settings: for IC50: NCI-H460, 48 h, read-out: IC50 (μM) H460, CCK-8, 48 h, average ± SD of three independent experiments
[6] = 2uM, given as fraction, Repeat 1-3
[7] = 4uM, given as fraction, Repeat 1-3
[8] = 8uM, given as fraction, Repeat 1-3
[9] = 16uM, given as fraction, Repeat 1-3
[10] = Homo sapiens, NCI-H1975, read-out: Inhibitory efficacy, H1975 cells, 4uM, given as fraction, Repeat 1-3
[11] = Homo sapiens, NCI-H1975, read-out: Inhibitory efficacy, H1975 cells, 8uM, given as fraction, Repeat 1-3
[12] = Homo sapiens, NCI-H1975, read-out: Inhibitory efficacy, H1975 cells, 16uM, given as fraction, Repeat 1-3
[13] = Homo sapiens, A549, read-out: Inhibitory efficacy, A549 cells, 16uM, given as fraction, Repeat 1-3

COCCOc1cc2ncnc(Nc3cccc(-c4cn(-c5ccc(F)cc5)nn4)c3)c2cc1OCCOC [e7, [6,7-Bis-(2-methoxy-ethoxy)-quinazolin-4-yl]-{3-[1-(4-fluoro-phenyl)-1H-[1,2,3]triazol-4-yl]-phenyl}-amine]
inhibition at 0.0003 µM ([1]; 0.3 nM, duplicate wells, calculated from A450): 6.05% | Inhibition ([1]; 0.3 nM, duplicate wells, calculated from A450, 0.0003 µM): 3.39 | inhibition at 0.003 µM ([1]; 3 nM, duplicate wells, calculated from A450): 8.07% | Inhibition ([1]; 3 nM, duplicate wells, calculated from A450, 0.003 µM): 4.0678 | inhibition at 0.03 µM ([1]; 30 nM, duplicate wells, calculated from A450): 9.08% | Inhibition ([1]; 30 nM, duplicate wells, calculated from A450, 0.03 µM): 6.78 | inhibition at 0.3 µM ([1]; 300 nM, duplicate wells, calculated from A450): 10.9% | Inhibition ([1]; 300 nM, duplicate wells, calculated from A450, 0.3 µM): 7.627 | inhibition at 3 µM ([1]; 3000 nM, duplicate wells, calculated from A450): 13.4% | Inhibition ([1]; 3000 nM, duplicate wells, calculated from A450, 3 µM): 20.339 | inhibition at 30 µM ([1]; 30000 nM, duplicate wells, calculated from A450): 61% | Inhibition ([1]; 30000 nM, duplicate wells, calculated from A450, 30 µM): 71.3559 | IC50 [1]: 14.7 µM | Inhibitory efficacy [2, 6]: 0.2223 and 0.2165 | Inhibitory efficacy [2, 7]: 0.3132 and 0.3374 | Inhibitory efficacy [2, 8]: 0.4723 and 0.4708 | Inhibitory efficacy [2, 9]: 0.4151 and 0.4664 | IC50 ([2]; Homo sapiens): 13.1 ± 4.41 µM | inhibition at 2 µM ([2]; Homo sapiens, NCI-H1975, read-out: Inhibitory efficacy, H1975 cells, 2uM, given as fraction, Repeat 1-3): 29.3% | inhibition at 4 µM [2, 10]: 38.9% | inhibition at 8 µM [2, 11]: 50.2% | inhibition at 16 µM [2, 12]: 54.1% | IC50 ([3]; Homo sapiens): 11.5 ± 1.57 µM | inhibition at 4 µM ([3]; Homo sapiens, PC-9, read-out: Inhibitory efficacy, PC-9, 4uM, single repeats (Repeat 1-3), given as fraction): 21.3% | inhibition at 8 µM ([3]; Homo sapiens, PC-9, read-out: Inhibitory efficacy, PC-9, 8uM, single repeats (Repeat 1-3), given as fraction): 41.9% | inhibition at 16 µM ([3]; Homo sapiens, PC-9, read-out: Inhibitory efficacy, PC-9, 16uM, single repeats (Repeat 1-3), given as fraction): 62.5% | Inhibitory efficacy ([3]; PC-9, 4uM, 4 µM): 0.2652 and 0.1935 | Inhibitory efficacy ([3]; PC-9, 8uM, 8 µM): 0.448 and 0.4014 | Inhibitory efficacy ([3]; PC-9, 16uM, 16 µM): 0.5556 and 0.543 | Inhibitory efficacy ([4]; 1uM, given as fraction, Repeat 1-3): 0.3498 and 0.2466 | Inhibitory efficacy [4, 6]: 0.3315 and 0.2534 | Inhibitory efficacy [4, 7]: 0.2813 and 0.2524 | Inhibitory efficacy [4, 8]: 0.2486 and 0.3238 | Inhibitory efficacy [4, 9]: 0.291 and 0.2842 | IC50 ([4]; Homo sapiens): > 100 µM | inhibition at 1 µM ([4]; Homo sapiens, A549, read-out: Inhibitory efficacy, A549 cells, 1uM, given as fraction, Repeat 1-3): 27.5% | inhibition at 2 µM ([4]; Homo sapiens, A549, read-out: Inhibitory efficacy, A549 cells, 2uM, given as fraction, Repeat 1-3): 24.8% | inhibition at 4 µM ([4]; Homo sapiens, A549, read-out: Inhibitory efficacy, A549 cells, 4uM, given as fraction, Repeat 1-3): 30.8% | inhibition at 8 µM ([4]; Homo sapiens, A549, read-out: Inhibitory efficacy, A549 cells, 8uM, given as fraction, Repeat 1-3): 29.7% | inhibition at 16 µM [4, 13]: 37.2% | melting point: 88 to 91 °C | Inhibitory efficacy ([5]; H460, 1uM, single repeats (Repeat 1-3), given as fraction, 1 µM): 0.233 and 0.152 | Inhibitory efficacy ([5]; H460, 2uM, single repeats (Repeat 1-3), given as fraction, 2 µM): 0.3048 and 0.3792 | Inhibitory efficacy ([5]; H460, 4uM, single repeats (Repeat 1-3), given as fraction, 4 µM): 0.2364 and 0.2572 | Inhibitory efficacy ([5]; H460, 8uM, single repeats (Repeat 1-3), given as fraction, 8 µM): 0.2581 and 0.2146 | Inhibitory efficacy ([5]; H460, 16uM, single repeats (Repeat 1-3), given as fraction, 16 µM): 0.3099 and 0.4184 | IC50 ([5]; Homo sapiens): > 100 µM | inhibition at 1 µM ([5]; Homo sapiens, NCI-H460, read-out: Inhibitory efficacy, H460, 1uM, single repeats (Repeat 1-3), given as fraction): 13.2% | inhibition at 2 µM ([5]; Homo sapiens, NCI-H460, read-out: Inhibitory efficacy, H460, 2uM, single repeats (Repeat 1-3), given as fraction): 30.4% | inhibition at 4 µM ([5]; Homo sapiens, NCI-H460, read-out: Inhibitory efficacy, H460, 4uM, single repeats (Repeat 1-3), given as fraction): 30.3% | inhibition at 8 µM ([5]; Homo sapiens, NCI-H460, read-out: Inhibitory efficacy, H460, 8uM, single repeats (Repeat 1-3), given as fraction): 29.6% | inhibition at 16 µM ([5]; Homo sapiens, NCI-H460, read-out: Inhibitory efficacy, H460, 16uM, single repeats (Repeat 1-3), given as fraction): 26.7%

COCCOc1cc2ncnc(Nc3cccc(-c4cn(Cc5ccccc5Br)nn4)c3)c2cc1OCCOC [e3, [6,7-Bis-(2-methoxy-ethoxy)-quinazolin-4-yl]-{3-[1-(2-bromo-benzyl)-1H-[1,2,3]triazol-4-yl]-phenyl}-amine]
IC50 [1]: 68 µM | inhibition at 100 fM ([1]; concentration 0.0001 nM (reference for normalisation), one value per replicate column): 0% | inhibition at 30 pM ([1]; concentration 0.03 nM, one value per replicate column): 11.8% | Inhibition ([1]; concentration 0.03 nM, one value per replicate column, 3e-05 µM): 14.7465 | inhibition at 0.0003 µM ([1]; concentration 0.3 nM, one value per replicate column): 17.6% | Inhibition ([1]; concentration 0.3 nM, one value per replicate column, 0.0003 µM): 17.0507 | inhibition at 0.003 µM ([1]; concentration 3 nM, one value per replicate column): 19.3% | Inhibition ([1]; concentration 3 nM, one value per replicate column, 0.003 µM): 17.0507 | inhibition at 0.03 µM ([1]; concentration 30 nM, one value per replicate column): 37.4% | Inhibition ([1]; concentration 30 nM, one value per replicate column, 0.03 µM): 28.1106 | inhibition at 0.3 µM ([1]; concentration 300 nM, one value per replicate column): 42.2% | Inhibition ([1]; concentration 300 nM, one value per replicate column, 0.3 µM): 35.4839 | inhibition at 3 µM ([1]; concentration 3000 nM, one value per replicate column): 42.8% | Inhibition ([1]; concentration 3000 nM, one value per replicate column, 3 µM): 36.8664 | inhibition at 30 µM ([1]; concentration 30000 nM, one value per replicate column): 44.9% | Inhibition ([1]; concentration 30000 nM, one value per replicate column, 30 µM): 39.1705 | A450 ([1]; concentration 0.0001 nM): 0.398 and 0.464 | A450 ([1]; concentration 0.03 nM): 0.376 and 0.432 | A450 ([1]; concentration 0.3 nM): 0.365 and 0.427 | A450 ([1]; concentration 3 nM): 0.362 and 0.427 | A450 ([1]; concentration 30 nM): 0.328 and 0.403 | A450 ([1]; concentration 300 nM): 0.319 and 0.387 | A450 ([1]; concentration 3000 nM): 0.318 and 0.384 | A450 ([1]; concentration 30000 nM): 0.314 and 0.379 | Inhibitory efficacy [2, 7]: 0.09844 and 0.1507 | Inhibitory efficacy [2, 8]: 0.1976 and 0.2347 | Inhibitory efficacy [2, 9]: 0.494 and 0.5082 | IC50 ([2]; Homo sapiens): 16.8 ± 1.02 µM | inhibition at 4 µM [2, 10]: 11.4% | inhibition at 8 µM [2, 11]: 25% | inhibition at 16 µM [2, 12]: 44.1% | IC50 ([3]; Homo sapiens): > 100 µM | Inhibitory efficacy [4, 9]: 0.1506 and 0.2274 | IC50 ([4]; Homo sapiens): > 100 µM | inhibition at 16 µM [4, 13]: 15.2% | melting point: 94 to 97 °C | Inhibitory efficacy ([5]; H460 cells, 1uM, given as fraction, Repeat 1-3): 0.2775 and 0.3081 | Inhibitory efficacy ([5]; H460 cells, 2uM, given as fraction, Repeat 1-3): 0.3143 and 0.3387 | Inhibitory efficacy ([5]; H460 cells, 8uM, given as fraction, Repeat 1-3): 0.3004 and 0.3491 | IC50 ([5]; Homo sapiens): > 100 µM | inhibition at 1 µM ([5]; Homo sapiens, NCI-H460, read-out: Inhibitory efficacy, H460 cells, 1uM, given as fraction, Repeat 1-3): 30.3% | inhibition at 2 µM ([5]; Homo sapiens, NCI-H460, read-out: Inhibitory efficacy, H460 cells, 2uM, given as fraction, Repeat 1-3): 35% | inhibition at 8 µM ([5]; Homo sapiens, NCI-H460, read-out: Inhibitory efficacy, H460 cells, 8uM, given as fraction, Repeat 1-3): 29%
